Results reported in patent US8829007B2 (priority 2009, dated 2014).
Read-outs that look alike come from different tables or passages of the source.

Columns and labels:
[1] = system: influenza A virus (A/PR/8/34); experiment: microbe, parasite or virus in culture; assay type: cell-based; settings: Influenza A virus, PR/8, MDCK, read-out: IC50 (mean all)
[2] = system: A/PR/8/34 influenza virus; experiment: microbe, parasite or virus in culture; assay type: cell-based
[3] = MDCK cells infected with A/PR/8/34, cell protection (CPE)
[4] = Influenza A virus, PR/8, MDCK, MDCK cells infected with A/PR/8/34, bDNA viral RNA; read-out: EC50 (mean all)

Compound	IC50 [1]	EC50 ([2]; Influenza A virus, PR/8, MDCK; read-out: EC50 (mean all))	EC50 ([2]; Influenza A virus, PR/8, MDCK, read-out: EC50 (mean all))	IC50 [1, 3]	EC50 [2, 4]
O=C(Oc1ccccc1Cl)N1CCC[C@H](CNc2nc(-c3c[nH]c4ncc(Cl)cc34)ncc2F)C1 [Compound 70, (R)-2-chlorophenyl 3-((2-(5-chloro-1H-pyrrolo[2,3-b]pyridin-3-yl)-5-fluoropyrimidin-4-ylamino)methyl)piperidine-1-carboxylate]	< 5 µM	< 5 µM			
C=C(C)OC(=O)N1CCC[C@H](CNc2nc(-c3c[nH]c4ncc(Cl)cc34)ncc2F)C1 [Compound 74, (R)-prop-1-en-2-yl 3-((2-(5-chloro-1H-pyrrolo[2,3-b]pyridin-3-yl)-5-fluoropyrimidin-4-ylamino)methyl)piperidine-1-carboxylate]	< 5 µM		< 5 µM		
O=C(Nc1cccc(F)c1)N1CCC[C@H](CNc2nc(-c3c[nH]c4ncc(Cl)cc34)ncc2F)C1 [Compound 75, (R)-3-((2-(5-chloro-1H-pyrrolo[2,3-b]pyridin-3-yl)-5-fluoropyrimidin-4-ylamino)methyl)-N-(3-fluorophenyl)piperidine-1-carboxamide]				< 5 µM	< 5 µM
COc1cccc(NC(=O)N2CCC[C@H](CNc3nc(-c4c[nH]c5ncc(Cl)cc45)ncc3F)C2)c1 [Compound 76, (R)-3-((2-(5-chloro-1H-pyrrolo[2,3-b]pyridin-3-yl)-5-fluoropyrimidin-4-ylamino)methyl)-N-(3-methoxyphenyl)piperidine-1-carboxamide]				< 5 µM	< 5 µM
Cc1cccc(NC(=O)N2CCC[C@H](CNc3nc(-c4c[nH]c5ncc(Cl)cc45)ncc3F)C2)c1 [Compound 78, (R)-3-((2-(5-chloro-1H-pyrrolo[2,3-b]pyridin-3-yl)-5-fluoropyrimidin-4-ylamino)methyl)-N-m-tolylpiperidine-1-carboxamide]				< 5 µM	< 5 µM
CC(C)(CC(=O)O)CC(=O)N1CCC[C@H](CNc2nc(-c3c[nH]c4ncc(Cl)cc34)ncc2F)C1 [Compound 80, (R)-5-(3-((2-(5-chloro-1H-pyrrolo[2,3-b]pyridin-3-yl)-5-fluoropyrimidin-4-ylamino)methyl)piperidin-1-yl)-3,3-dimethyl-5-oxopentanoic acid]				< 5 µM	< 5 µM
O=C(O)CC1(CC(=O)N2CCC[C@H](CNc3nc(-c4c[nH]c5ncc(Cl)cc45)ncc3F)C2)CCCC1 [Compound 81, (R)-2-(1-(2-(3-((2-(5-chloro-1H-pyrrolo[2,3-b]pyridin-3-yl)-5-fluoropyrimidin-4-ylamino)methyl)piperidin-1-yl)-2-oxoethyl)cyclopentyl)ethanoic acid]				< 5 µM	< 5 µM
O=C(c1ccccc1Cl)N1CCC[C@H](CNc2nc(-c3c[nH]c4ncc(Cl)cc34)ncc2F)C1 [Compound 84, (R)-(3-((2-(5-chloro-1H-pyrrolo[2,3-b]pyridin-3-yl)-5-fluoropyrimidin-4-ylamino)methyl)piperidin-1-yl)(2-chlorophenyl)methanone]				< 5 µM	< 5 µM
O=C(c1ccc(F)c(F)c1)N1CCC[C@H](CNc2nc(-c3c[nH]c4ncc(Cl)cc34)ncc2F)C1 [Compound 85, (R)-(3-((2-(5-chloro-1H-pyrrolo[2,3-b]pyridin-3-yl)-5-fluoropyrimidin-4-ylamino)methyl)piperidin-1-yl)(3,4-difluorophenyl)methanone]				5 to 20 µM	< 5 µM
O=C(c1cc(F)cc(F)c1)N1CCC[C@H](CNc2nc(-c3c[nH]c4ncc(Cl)cc34)ncc2F)C1 [Compound 86, (R)-(3-((2-(5-chloro-1H-pyrrolo[2,3-b]pyridin-3-yl)-5-fluoropyrimidin-4-ylamino)methyl)piperidin-1-yl)(3,5-difluorophenyl)methanone]				< 5 µM	< 5 µM
O=S(=O)(c1ccccc1)N1CCC[C@H](CNc2nc(-c3c[nH]c4ncc(Cl)cc34)ncc2F)C1 [Compound 87, (R)-2-(5-chloro-1H-pyrrolo[2,3-b]pyridin-3-yl)-5-fluoro-N-((1-(phenylsulfonyl)piperidin-3-yl)methyl)pyrimidin-4-amine]				< 5 µM	< 5 µM
O=S(=O)(c1cccs1)N1CCCC(CNc2nc(-c3c[nH]c4ncc(Cl)cc34)ncc2F)C1 (centres unmarked) [Compound 89]				< 5 µM	< 5 µM
O=S(=O)(c1ccccc1F)N1CCC[C@H](CNc2nc(-c3c[nH]c4ncc(Cl)cc34)ncc2F)C1 [Compound 90, (R)-2-(5-chloro-1H-pyrrolo[2,3-b]pyridin-3-yl)-5-fluoro-N-((1-(2-fluorophenylsulfonyl)piperidin-3-yl)methyl)pyrimidin-4-amine]				< 5 µM	< 5 µM
Cn1cnc(S(=O)(=O)N2CCC[C@H](CNc3nc(-c4c[nH]c5ncc(Cl)cc45)ncc3F)C2)c1 [Compound 91, (R)-2-(5-chloro-1H-pyrrolo[2,3-b]pyridin-3-yl)-5-fluoro-N-((1-(1-methyl-1H-imidazol-4-ylsulfonyl)piperidin-3-yl)methyl)pyrimidin-4-amine]				< 5 µM	< 5 µM
O=C(CCl)N1CCC[C@H](CNc2nc(-c3c[nH]c4ncc(Cl)cc34)ncc2F)C1 [Compound 92, (R)-2-chloro-1-(3-((2-(5-chloro-1H-pyrrolo[2,3-b]pyridin-3-yl)-5-fluoropyrimidin-4-ylamino)methyl)piperidin-1-yl)ethanone]				< 5 µM	< 5 µM
CC(Cl)C(=O)N1CCC[C@H](CNc2nc(-c3c[nH]c4ncc(Cl)cc34)ncc2F)C1 (stereo partly drawn) [Compound 93, 2-chloro-1-((R)-3-((2-(5-chloro-1H-pyrrolo[2,3-b]pyridin-3-yl)-5-fluoropyrimidin-4-ylamino)methyl)piperidin-1-yl)propan-1-one]				< 5 µM	< 5 µM
O=C(COc1ccccc1)N1CCC[C@H](CNc2nc(-c3c[nH]c4ncc(Cl)cc34)ncc2F)C1 [Compound 94, (R)-1-(3-((2-(5-chloro-1H-pyrrolo[2,3-b]pyridin-3-yl)-5-fluoropyrimidin-4-ylamino)methyl)piperidin-1-yl)-2-phenoxyethanone]				< 5 µM	< 5 µM
O=C(C1CCCCC1)N1CCC[C@H](CNc2nc(-c3c[nH]c4ncc(Cl)cc34)ncc2F)C1 [Compound 95, (R)-(3-((2-(5-chloro-1H-pyrrolo[2,3-b]pyridin-3-yl)-5-fluoropyrimidin-4-ylamino)methyl)piperidin-1-yl)(cyclohexyl)methanone]				< 5 µM	< 5 µM
O=C(c1cccs1)N1CCC[C@H](CNc2nc(-c3c[nH]c4ncc(Cl)cc34)ncc2F)C1 [Compound 97, (R)-(3-((2-(5-chloro-1H-pyrrolo[2,3-b]pyridin-3-yl)-5-fluoropyrimidin-4-ylamino)methyl)piperidin-1-yl)(thiophen-2-yl)methanone]				< 5 µM	< 5 µM
O=C(Cc1ccc(F)cc1)N1CCC[C@H](CNc2nc(-c3c[nH]c4ncc(Cl)cc34)ncc2F)C1 [Compound 98, (R)-1-(3-((2-(5-chloro-1H-pyrrolo[2,3-b]pyridin-3-yl)-5-fluoropyrimidin-4-ylamino)methyl)piperidin-1-yl)-2-(4-fluorophenyl)ethanone]				< 5 µM	< 5 µM
O=C(C1CCCC1)N1CCC[C@H](CNc2nc(-c3c[nH]c4ncc(Cl)cc34)ncc2F)C1 [Compound 99, (R)-(3-((2-(5-chloro-1H-pyrrolo[2,3-b]pyridin-3-yl)-5-fluoropyrimidin-4-ylamino)methyl)piperidin-1-yl)(cyclopentyl)methanone]				< 5 µM	< 5 µM
O=C(CC1CCCC1)N1CCC[C@H](CNc2nc(-c3c[nH]c4ncc(Cl)cc34)ncc2F)C1 [Compound 100, (R)-1-(3-((2-(5-chloro-1H-pyrrolo[2,3-b]pyridin-3-yl)-5-fluoropyrimidin-4-ylamino)methyl)piperidin-1-yl)-2-cyclopentylethanone]				< 5 µM	< 5 µM
O=C(c1cnccn1)N1CCC[C@H](CNc2nc(-c3c[nH]c4ncc(Cl)cc34)ncc2F)C1 [Compound 101, (R)-(3-((2-(5-chloro-1H-pyrrolo[2,3-b]pyridin-3-yl)-5-fluoropyrimidin-4-ylamino)methyl)piperidin-1-yl)(pyrazin-2-yl)methanone]				< 5 µM	< 5 µM
O=C(c1ccco1)N1CCC[C@H](CNc2nc(-c3c[nH]c4ncc(Cl)cc34)ncc2F)C1 [Compound 102, (R)-(3-((2-(5-chloro-1H-pyrrolo[2,3-b]pyridin-3-yl)-5-fluoropyrimidin-4-ylamino)methyl)piperidin-1-yl)(furan-2-yl)methanone]				< 5 µM	< 5 µM
O=C(Cc1cccs1)N1CCC[C@H](CNc2nc(-c3c[nH]c4ncc(Cl)cc34)ncc2F)C1 [Compound 104, (R)-1-(3-((2-(5-chloro-1H-pyrrolo[2,3-b]pyridin-3-yl)-5-fluoropyrimidin-4-ylamino)methyl)piperidin-1-yl)-2-(thiophen-2-yl)ethanone]				< 5 µM	< 5 µM
CC(C)(C)C(=O)N1CCC[C@H](CNc2nc(-c3c[nH]c4ncc(Cl)cc34)ncc2F)C1 [Compound 105, (R)-1-(3-((2-(5-chloro-1H-pyrrolo[2,3-b]pyridin-3-yl)-5-fluoropyrimidin-4-ylamino)methyl)piperidin-1-yl)-2,2-dimethylpropan-1-one]				< 5 µM	< 5 µM
O=C(COCc1ccccc1)N1CCC[C@H](CNc2nc(-c3c[nH]c4ncc(Cl)cc34)ncc2F)C1 [Compound 106, (R)-2-(benzyloxy)-1-(3-((2-(5-chloro-1H-pyrrolo[2,3-b]pyridin-3-yl)-5-fluoropyrimidin-4-ylamino)methyl)piperidin-1-yl)ethanone]				< 5 µM	< 5 µM
O=C(c1cc2ccccc2s1)N1CCC[C@H](CNc2nc(-c3c[nH]c4ncc(Cl)cc34)ncc2F)C1 [Compound 107, (R)-benzo[b]thiophen-2-yl(3-((2-(5-chloro-1H-pyrrolo[2,3-b]pyridin-3-yl)-5-fluoropyrimidin-4-ylamino)methyl)piperidin-1-yl)methanone]				< 5 µM	< 5 µM
